This note sets out measurements from article PMC4664966, “Discovery and characterization of novel inhibitors of the sodium-coupled citrate transporter (NaCT or SLC13A5)” (Scientific Reports, 2015).

In series [1] the target is Cytochrome P450 2D6 (CYP2D6) (Homo sapiens, UniProt P10635). In words: Selectivity data (Table S1). In kind it is in vitro ADME.
The next series addresses CYP2D6 (Homo sapiens, UniProt P10635). Nature of the series: Selectivity data (Table S1). In kind it is in vitro ADME. Conditions: 3 µM.
For series [2], the target named is Serotonin receptor 2A (5-HT2A) (Homo sapiens, UniProt P28223). Nature of the series: Selectivity data (Table S1). In kind it is binding.
For series [3], the target named is Serotonin receptor 1B (5-HT1B) (Homo sapiens, UniProt P28222). Nature of the series: Selectivity data (Table S1). In kind it is binding.
Chain of Serotonin receptor 1B (5-HT1B) (P28222 whole entry): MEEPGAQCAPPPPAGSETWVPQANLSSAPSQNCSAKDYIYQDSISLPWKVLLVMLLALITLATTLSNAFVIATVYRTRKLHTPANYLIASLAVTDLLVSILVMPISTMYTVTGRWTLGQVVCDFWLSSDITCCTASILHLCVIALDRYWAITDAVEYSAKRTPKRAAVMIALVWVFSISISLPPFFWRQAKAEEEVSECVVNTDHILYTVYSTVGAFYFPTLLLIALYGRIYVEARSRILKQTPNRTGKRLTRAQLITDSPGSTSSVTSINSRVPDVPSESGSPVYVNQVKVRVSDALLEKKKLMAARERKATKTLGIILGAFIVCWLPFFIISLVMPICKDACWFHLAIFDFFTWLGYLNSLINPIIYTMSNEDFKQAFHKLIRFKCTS
For series [4], the target named is Sodium channel, type V, alpha-subunit (NaV1.5) (Homo sapiens, UniProt Q14524). Nature of the series: Selectivity data (Table S1).
Chain of Sodium channel, type V, alpha-subunit (NaV1.5) (Q14524 whole entry): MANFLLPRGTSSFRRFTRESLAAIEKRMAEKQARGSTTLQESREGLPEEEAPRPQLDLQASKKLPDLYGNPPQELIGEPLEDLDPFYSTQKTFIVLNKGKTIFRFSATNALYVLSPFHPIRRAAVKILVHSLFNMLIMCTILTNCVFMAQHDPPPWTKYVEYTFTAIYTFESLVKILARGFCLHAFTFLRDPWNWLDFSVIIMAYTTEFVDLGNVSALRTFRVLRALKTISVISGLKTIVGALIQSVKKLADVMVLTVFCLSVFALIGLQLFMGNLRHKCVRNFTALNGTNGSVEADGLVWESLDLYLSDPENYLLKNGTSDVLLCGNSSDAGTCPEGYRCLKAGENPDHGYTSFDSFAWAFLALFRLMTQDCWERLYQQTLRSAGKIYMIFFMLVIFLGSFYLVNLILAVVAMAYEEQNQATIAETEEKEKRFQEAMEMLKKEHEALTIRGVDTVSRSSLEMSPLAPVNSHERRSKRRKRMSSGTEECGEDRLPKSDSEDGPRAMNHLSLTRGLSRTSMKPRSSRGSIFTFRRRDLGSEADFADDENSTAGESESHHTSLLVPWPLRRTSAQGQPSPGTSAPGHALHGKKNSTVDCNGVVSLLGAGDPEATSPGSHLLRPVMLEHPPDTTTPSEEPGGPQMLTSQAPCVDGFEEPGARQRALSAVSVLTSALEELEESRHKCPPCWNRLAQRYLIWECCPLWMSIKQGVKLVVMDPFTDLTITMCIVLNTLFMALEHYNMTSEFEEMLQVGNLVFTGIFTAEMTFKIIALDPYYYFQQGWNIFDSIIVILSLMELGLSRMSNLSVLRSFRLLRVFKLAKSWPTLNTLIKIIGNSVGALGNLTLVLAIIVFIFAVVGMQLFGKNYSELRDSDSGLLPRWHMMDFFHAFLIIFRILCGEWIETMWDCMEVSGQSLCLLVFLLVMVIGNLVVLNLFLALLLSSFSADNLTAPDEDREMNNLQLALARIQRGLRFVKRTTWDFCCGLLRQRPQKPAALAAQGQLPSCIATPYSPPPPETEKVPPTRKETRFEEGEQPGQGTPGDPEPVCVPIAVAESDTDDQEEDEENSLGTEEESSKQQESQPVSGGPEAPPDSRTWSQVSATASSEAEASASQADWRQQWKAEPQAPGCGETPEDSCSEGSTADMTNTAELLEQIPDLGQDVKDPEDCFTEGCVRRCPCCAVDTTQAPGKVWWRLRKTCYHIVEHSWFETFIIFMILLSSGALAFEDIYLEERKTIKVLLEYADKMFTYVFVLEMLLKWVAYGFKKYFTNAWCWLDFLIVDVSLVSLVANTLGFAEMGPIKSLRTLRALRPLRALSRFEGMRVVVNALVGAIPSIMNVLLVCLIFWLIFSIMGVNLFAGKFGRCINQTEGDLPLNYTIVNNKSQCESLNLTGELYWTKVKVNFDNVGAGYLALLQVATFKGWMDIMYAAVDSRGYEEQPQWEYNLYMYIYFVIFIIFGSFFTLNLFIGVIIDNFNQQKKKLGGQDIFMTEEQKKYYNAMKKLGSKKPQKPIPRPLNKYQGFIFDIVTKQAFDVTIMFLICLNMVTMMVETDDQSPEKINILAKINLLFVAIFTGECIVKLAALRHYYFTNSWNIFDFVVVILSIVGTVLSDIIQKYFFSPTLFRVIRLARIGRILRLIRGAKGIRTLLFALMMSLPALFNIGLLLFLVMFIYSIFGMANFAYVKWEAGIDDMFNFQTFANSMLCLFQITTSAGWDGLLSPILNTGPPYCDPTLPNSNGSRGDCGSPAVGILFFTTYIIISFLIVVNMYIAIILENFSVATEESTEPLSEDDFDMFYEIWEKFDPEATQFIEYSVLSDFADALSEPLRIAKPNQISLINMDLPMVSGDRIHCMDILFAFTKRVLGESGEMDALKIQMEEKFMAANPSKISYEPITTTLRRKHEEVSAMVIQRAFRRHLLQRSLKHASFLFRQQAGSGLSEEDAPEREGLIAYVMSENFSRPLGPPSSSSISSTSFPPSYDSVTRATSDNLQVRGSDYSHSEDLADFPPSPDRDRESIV
The next series deals with Calcium channel, L-type. Nature of the series: Selectivity data (Table S1).
In series [5] the target is Adrenergic receptor, alpha-1A (ADRA1A) (Homo sapiens, UniProt P35348). Nature of the series: Selectivity data (Table S1). In kind it is binding.
Chain of Adrenergic receptor, alpha-1A (ADRA1A) (P35348 whole entry): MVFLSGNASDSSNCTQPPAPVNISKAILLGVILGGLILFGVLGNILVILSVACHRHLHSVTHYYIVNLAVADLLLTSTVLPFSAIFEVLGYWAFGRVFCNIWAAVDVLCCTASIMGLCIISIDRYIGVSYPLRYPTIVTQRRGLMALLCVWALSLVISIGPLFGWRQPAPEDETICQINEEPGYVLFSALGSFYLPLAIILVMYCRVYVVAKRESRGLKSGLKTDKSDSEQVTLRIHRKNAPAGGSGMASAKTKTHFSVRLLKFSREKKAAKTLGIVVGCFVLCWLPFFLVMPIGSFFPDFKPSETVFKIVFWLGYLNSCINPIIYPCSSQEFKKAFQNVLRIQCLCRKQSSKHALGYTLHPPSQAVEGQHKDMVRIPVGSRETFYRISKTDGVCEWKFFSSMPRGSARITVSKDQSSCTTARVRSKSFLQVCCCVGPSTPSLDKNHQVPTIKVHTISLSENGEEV
The target of series [6] is Serotonin transporter, sodium-dependent (5-HTT) (Homo sapiens, UniProt P31645). In words: Selectivity data (Table S1).
Chain of Serotonin transporter, sodium-dependent (5-HTT) (P31645 whole entry): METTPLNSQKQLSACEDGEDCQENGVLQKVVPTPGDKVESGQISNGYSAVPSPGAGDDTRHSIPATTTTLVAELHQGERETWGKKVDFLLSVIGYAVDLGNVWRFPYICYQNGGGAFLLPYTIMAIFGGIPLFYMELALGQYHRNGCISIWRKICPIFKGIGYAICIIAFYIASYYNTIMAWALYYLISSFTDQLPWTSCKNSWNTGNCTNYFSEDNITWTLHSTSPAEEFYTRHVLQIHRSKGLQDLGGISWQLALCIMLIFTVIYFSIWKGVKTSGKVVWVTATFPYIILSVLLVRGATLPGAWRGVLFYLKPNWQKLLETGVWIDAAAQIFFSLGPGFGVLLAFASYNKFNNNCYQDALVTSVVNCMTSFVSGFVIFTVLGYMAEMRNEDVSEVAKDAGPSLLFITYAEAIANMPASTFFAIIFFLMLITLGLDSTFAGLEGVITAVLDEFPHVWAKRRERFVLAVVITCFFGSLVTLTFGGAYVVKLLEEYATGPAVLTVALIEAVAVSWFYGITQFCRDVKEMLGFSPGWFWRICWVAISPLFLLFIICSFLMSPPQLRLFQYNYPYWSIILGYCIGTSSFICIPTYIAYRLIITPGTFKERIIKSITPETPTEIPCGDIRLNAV
Series [7] addresses Monoamine oxidase A (MAOA) (Homo sapiens, UniProt P21397). In words: Selectivity data (Table S1). It counts as biochemical.
The target in the next series is CYP1A2 (Homo sapiens, UniProt P05177). Nature of the series: Selectivity data (Table S1). In kind it is in vitro ADME. Conditions: 3 µM.
The target of series [8] is Cytochrome P450 1A2 (CYP1A2) (Homo sapiens, UniProt P05177). In words: Selectivity data (Table S1). It counts as in vitro ADME.
For a further series, the system named is human hepatocytes. In words: U-[13C]-citrate uptake and incorporation into TCA cycle intermediates in human hepatocytes. As to conditions: 500 μM U-[13C]-citrate, 30 μM compound. In kind it is cell-based. The method, then:
Primary hepatocytes were given the indicated substrates (compound and labeled citrate) under the same conditions used to generate the IC50 curves. Incubations were stopped by rapidly removing culture media and adding 80% methanol pre-cooled in dry ice. Cellular debris was removed by centrifugation and samples dried by Speedvac. Dried cell extracts were then re-dissolved in 100 μL HPLC-grade water. Citrate uptake was analyzed by injecting a 10 μL aliquot of sample onto an Imtakt UK-Phenyl (2.1 mm × 150 mm) column (Imtakt USA, Philadelphia, PA, USA) using a Waters Acquity UPLC system (Waters Corp., Milford, MA, USA) coupled to a Thermo Q-Exactive mass spectrometer (Thermo Corp., San Jose, CA, USA). […] Metabolites were monitored using negative ion electrospray, ESI(-), in full scan mode with a resolution of 70,000 FWHM calibrated to mass accuracy <2 ppm. […] Citrate transport was determined through enrichment of ^13C6-citrate into the intracellular pool of citrate as determined by the percent ^13C6-citrate in the total pool. Fate of citrate carbon through one turn of the TCA cycle was analyzed by comparing percent labeling into the respective pools of ^13C4-fumarate, ^13C4-malate, and ^13C4-glutamate. Thermo LCQuan (Thermo Corp, San Jose, CA, USA) was used to extract out exact mass using a 5 ppm window at the calculated accurate mass for each metabolite and its isotopomer. […]

The nature of the next series: Plasma fraction unbound. It counts as in vitro ADME. As to conditions: mouse, read-out: mouse plasma fu.
Series [9] addresses Cannabinoid receptor 1 (CB1) (Homo sapiens, UniProt P21554). Nature of the series: Selectivity data (Table S1). In kind it is binding.
The target in series [10] is Glucocorticoid receptor (GR) (Homo sapiens, UniProt P04150). Nature of the series: Selectivity data (Table S1). In kind it is binding.
Chain of Glucocorticoid receptor (GR) (P04150 whole entry): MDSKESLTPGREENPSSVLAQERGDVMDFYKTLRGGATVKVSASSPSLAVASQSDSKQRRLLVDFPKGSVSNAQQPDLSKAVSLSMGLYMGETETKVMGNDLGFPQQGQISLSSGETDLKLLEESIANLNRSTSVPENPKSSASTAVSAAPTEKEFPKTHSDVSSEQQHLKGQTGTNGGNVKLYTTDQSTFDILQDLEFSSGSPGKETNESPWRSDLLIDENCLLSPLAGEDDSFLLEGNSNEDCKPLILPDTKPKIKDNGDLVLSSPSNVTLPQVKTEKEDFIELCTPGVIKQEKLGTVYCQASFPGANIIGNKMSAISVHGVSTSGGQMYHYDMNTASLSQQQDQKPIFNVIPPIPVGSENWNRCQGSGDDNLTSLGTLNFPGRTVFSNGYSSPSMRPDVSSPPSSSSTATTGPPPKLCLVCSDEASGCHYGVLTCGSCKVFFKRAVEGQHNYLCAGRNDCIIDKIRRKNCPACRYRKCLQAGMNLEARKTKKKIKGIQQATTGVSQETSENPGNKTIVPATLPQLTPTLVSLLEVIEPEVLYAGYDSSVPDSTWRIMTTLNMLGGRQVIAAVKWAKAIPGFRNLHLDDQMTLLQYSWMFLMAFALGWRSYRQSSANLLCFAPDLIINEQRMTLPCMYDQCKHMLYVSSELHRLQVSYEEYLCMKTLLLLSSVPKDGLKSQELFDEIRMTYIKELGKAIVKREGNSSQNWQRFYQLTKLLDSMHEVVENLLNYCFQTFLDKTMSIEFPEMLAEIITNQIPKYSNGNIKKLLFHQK
Series [11] concerns the target ATP-binding cassette, sub-family B, member 11 (ABCB11) (Homo sapiens, UniProt O95342). In words: Selectivity data (Table S1).
Series [12] in a line: Passive permeability, MDCK-LE cell monolayer. In kind it is in vitro ADME. As to conditions: dog; MDCK-LE cell monolayer; read-out: Papp (apparent passive permeability). The method, then:
Passive permeability was assessed using MDCK-LE cell monolayer as described previously in Di et al., (2011)[44].

Series [13] deals with Cholecystokinin receptor B (CCKBR) (Homo sapiens, UniProt P32239). In words: Selectivity data (Table S1). It counts as binding.
Chain of Cholecystokinin receptor B (CCKBR) (P32239 whole entry): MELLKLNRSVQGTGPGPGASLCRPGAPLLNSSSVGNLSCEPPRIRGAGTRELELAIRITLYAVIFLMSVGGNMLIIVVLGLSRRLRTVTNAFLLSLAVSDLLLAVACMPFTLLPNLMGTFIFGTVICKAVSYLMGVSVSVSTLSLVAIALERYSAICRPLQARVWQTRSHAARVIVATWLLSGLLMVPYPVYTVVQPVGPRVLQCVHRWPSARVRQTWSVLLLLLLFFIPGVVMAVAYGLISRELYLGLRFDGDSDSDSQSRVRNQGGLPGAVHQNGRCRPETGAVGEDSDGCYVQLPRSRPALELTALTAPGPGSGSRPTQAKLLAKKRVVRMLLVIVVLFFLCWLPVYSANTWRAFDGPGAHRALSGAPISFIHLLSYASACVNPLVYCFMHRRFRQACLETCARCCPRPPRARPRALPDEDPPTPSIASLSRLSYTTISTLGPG
Series [14] addresses Angiotensin-converting enzyme 1 (ACE1) (Homo sapiens, UniProt P12821). In words: Selectivity data (Table S1). In kind it is biochemical.
In series [15] the target is Serotonin receptor 3 (5-HT3) (Homo sapiens, UniProt P46098). Nature of the series: Selectivity data (Table S1). In kind it is binding.
Series [16] addresses Phosphodiesterase 3A1 (PDE3A1) (Homo sapiens, UniProt Q14432). In words: Selectivity data (Table S1). It counts as biochemical.

Some results are limits rather than exact numbers.

As to `CC(C)(C)c1ccc(CC[C@@](O)(CC(=O)O)C(=O)O)cc1` [Compound 2], the “interaction/inhibition of CYP2D6” value in series [1] is reported as “no significant interaction/inhibition”. Further, the inhibition at 3 µM against CYP2D6 and at CYP1A2 was less than 10% each time. Further, the inhibition at 100 µM in series [2], in series [3], in series [5], in series [6], in series [7] and in [9] was less than 10% in each case. Further, the inhibition at 100 µM in series [10], in [13], in [14] and in series [15] was less than 10% each time. In addition, the inhibition at 10 µM in [4] was less than 10%. For the same compound, the IC50 in the series on Calcium channel, L-type is more than 30 µM; in series [11], more than 200 µM; in series [16] it was more than 30 µM. In addition, in [8], the “interaction/inhibition of CYP1A2” value was “no significant interaction/inhibition”. The “uniform labeling of citrate, malate, glutamate and fumarate from U-[13C]-citrate” value in the series with human hepatocytes is “reduced”. Further, in “Plasma fraction unbound”, the fraction unbound was found to be 0.26. Further, the Papp in [12] came out at 1.4 ×10⁻⁶ cm/s.
